The values that follow come from US20080021026A1, “BENZOTHIOPHENE INHIBITORS OF RHO KINASE” (priority 2006, published 2008).

As usually defined, the IC50 is the concentration that gives 50% inhibition.

In assay [1] the target is T1, recombinant N-terminal GST-tagged human Rho kinase 2 (ROCK2, amino acids 1-552) (Homo sapiens, UniProt O75116).
T1 construct: ROCK2, amino acids 1-552; purchased Invitrogen Inc. PV3759
In words: In vitro Rho kinase assay (luciferase-based ATP consumption), ROCK2. The class given is biochemical. In short, it runs like this: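 GST-ROCK2 (aa 1-552, 0.82 μg/ml) with 100 μg/ml S6 peptide and 3 µM ATP in Tris pH 7.5 buffer with MgCl2/CaCl2/EGTA/BSA, compound added just after reaction start, 2 h at 30 °C. Remaining ATP read by luciferase luminescence. Efficacy expressed as percentage of H-1152P positive control.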

The target in assay [2] is T2, recombinant N-terminal GST-tagged human Rho kinase 1 (ROCK1, amino acids 1-535) (Homo sapiens, UniProt Q13464).
T2 construct: ROCK1, amino acids 1-535; purchased Invitrogen Inc. PV-3691
T2 sequence (Q13464 1-535): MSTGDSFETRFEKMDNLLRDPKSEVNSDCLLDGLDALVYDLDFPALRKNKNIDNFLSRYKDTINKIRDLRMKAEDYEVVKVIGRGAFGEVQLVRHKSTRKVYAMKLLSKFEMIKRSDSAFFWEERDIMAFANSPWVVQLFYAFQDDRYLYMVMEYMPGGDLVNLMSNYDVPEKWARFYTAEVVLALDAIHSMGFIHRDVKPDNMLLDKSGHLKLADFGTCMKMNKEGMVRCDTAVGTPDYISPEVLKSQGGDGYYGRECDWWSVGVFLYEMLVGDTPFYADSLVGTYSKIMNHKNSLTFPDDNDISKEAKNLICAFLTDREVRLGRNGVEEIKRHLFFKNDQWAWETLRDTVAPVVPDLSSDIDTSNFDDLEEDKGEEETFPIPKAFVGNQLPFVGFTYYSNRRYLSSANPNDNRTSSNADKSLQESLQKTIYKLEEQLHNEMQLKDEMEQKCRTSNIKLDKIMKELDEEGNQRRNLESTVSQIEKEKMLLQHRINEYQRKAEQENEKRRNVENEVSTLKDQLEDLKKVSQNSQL
In words: In vitro Rho kinase assay (luciferase-based ATP consumption), ROCK1. Type of assay: biochemical. In short, it runs like this:
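GST-ROCK1 (aa 1-535) at 0.82 μg/ml with 100 μg/ml S6 peptide and 3 µM ATP in Tris pH 7.5 buffer with MgCl2, CaCl2, EGTA, BSA; compound added after reaction start, 2 h at 30 °C. Remaining ATP read by luciferase luminescence; efficacy as percent of H-1152P positive control.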

The mark [3] stands for this setting: recombinant GST-tagged human ROCK2, luciferase-based ATP consumption, read-out: ROCK2 IC50.
The mark [4] stands for this setting: recombinant GST-tagged human ROCK1, luciferase-based ATP consumption, read-out: ROCK1 IC50.

Structures are written as SMILES. Like-named read-outs stand apart in the source and are kept apart here.

T1 sequence (O75116 1-552): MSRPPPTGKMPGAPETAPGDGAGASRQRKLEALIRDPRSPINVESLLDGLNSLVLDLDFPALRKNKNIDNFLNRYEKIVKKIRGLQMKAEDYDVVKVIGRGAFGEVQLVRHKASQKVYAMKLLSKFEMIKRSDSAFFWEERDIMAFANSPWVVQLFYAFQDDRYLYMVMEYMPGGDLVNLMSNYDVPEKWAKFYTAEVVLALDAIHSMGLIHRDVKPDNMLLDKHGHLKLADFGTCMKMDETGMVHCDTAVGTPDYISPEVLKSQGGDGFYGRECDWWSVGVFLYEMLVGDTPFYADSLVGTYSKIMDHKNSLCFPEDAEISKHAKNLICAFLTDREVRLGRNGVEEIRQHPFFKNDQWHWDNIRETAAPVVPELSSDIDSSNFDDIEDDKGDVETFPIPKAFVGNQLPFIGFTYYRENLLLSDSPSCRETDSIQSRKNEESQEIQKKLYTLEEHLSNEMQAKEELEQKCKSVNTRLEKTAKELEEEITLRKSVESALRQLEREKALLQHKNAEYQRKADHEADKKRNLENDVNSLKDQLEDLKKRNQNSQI

Consider `Cc1c(-c2ccnc(N)n2)sc2ccc(CNC(=O)C3CCCN3C(=O)OCc3ccccc3)cc12` (stereo not drawn) [Example 321, Cc1c(sc2ccc(CNC(═O)[C]3CCCN3C(═O)OCc4ccccc4)cc12)-c5ccnc(N)n5], for which the concentration for half-maximal inhibition (IC50) in assay [1] (setting [3]) is above 5 µM; in assay [2] (setting [4]), below 5 µM.
Consider `Cc1c(-c2ccnc(N)n2)sc2ccc(CNC(=O)c3cccc(Cl)c3Cl)cc12` [Example 245, Cc1c(sc2ccc(CNC(═O)c3cccc(Cl)c3Cl)cc12)-c4ccnc(N)n4], for which the IC50 in assay [1] (ROCK2 IC50, recombinant GST-tagged human ROCK2, luciferase-based ATP consumption) was below 5 µM; in assay [2] (ROCK1 IC50, recombinant GST-tagged human ROCK1, luciferase-based ATP consumption), above 5 µM.
In the case of `Cc1c(-c2ccnc(N)n2)sc2ccc(CNC(=O)C=Cc3cccc(O)c3)cc12` [Example 163, Cc1c(sc2ccc(CNC(═O)C═Cc3cccc(O)c3)cc12)-c4ccnc(N)n4], the IC50 in assay [1] (setting [3]) and in assay [2] (setting [4]) was below 5 µM throughout.
As for `Cc1c(-c2ccnc(N)n2)sc2ccc(CNC(=O)c3ccc(Cl)nc3)cc12` [Example 148, Cc1c(sc2ccc(CNC(═O)c3ccc(Cl)nc3)cc12)-c4ccnc(N)n4], the IC50 was below 5 µM in assay [1] (setting [3]) and above 5 µM in assay [2] (setting [4]).
Take `Cc1c(-c2ccnc(N)n2)sc2ccc(CNC(=O)C=Cc3ccc4c(c3)OCO4)cc12` [Example 249, Cc1c(sc2ccc(CNC(═O)C═Cc3ccc4OCOc4c3)cc12)-c5ccnc(N)n5]: the figures for the IC50 in assay [1] (setting [3]) and in assay [2] (setting [4]) were below 5 µM and above 5 µM, respectively.
On to `Cc1c(-c2ccnc(N)n2)sc2ccc(Cc3ccccc3)cc12` [Example 24, 4-(5-Benzyl-3-methylbenzo[b]thiophen-2-yl)pyrimidin-2-amine], for which the IC50 in assay [1] (setting [3]) and in assay [2] (setting [4]) was below 5 µM each time.
On to `COc1cc(C(=O)NCc2ccc3sc(-c4ccnc(N)n4)c(C)c3c2)cc(Cl)n1` [Example 235, COc1cc(cc(Cl)n1)C(═O)NCc2ccc3sc(c(C)c3c2)-c4ccnc(N)n4], for which the IC50 in assay [1] (setting [3]) and in assay [2] (setting [4]) was below 5 µM throughout.
For `Cc1c(-c2ccnc(N)n2)sc2ccc(CNC(=O)c3cccc4ccccc34)cc12` [Example 189, Cc1c(sc2ccc(CNC(═O)c3cccc4ccccc34)cc12)-c5ccnc(N)n5], the IC50 in assay [1] (setting [3]) and in assay [2] (setting [4]) was below 5 µM each time.
For the molecule `Cc1c(-c2ccnc(N)n2)sc2ccc(Cc3cccc(C(=O)Nc4ccc(N5CCOCC5)cc4)c3)cc12` [Example 45, 3-((2-(2-Aminopyrimidin-4-yl)-3-methylbenzo[b]thiophen-5-yl)methyl)-N-(4-morpholinophenyl)benzamide], the half-maximal inhibitory concentration (IC50) in assay [1] (setting [3]) and in assay [2] (setting [4]) was below 5 µM throughout.
`COc1ccc(OC)c(Cc2ccc3sc(-c4ccnc(N)n4)c(C)c3c2)c1` [Example 38, 4-(5-(2,5-Dimethoxybenzyl)-3-methylbenzo[b]thiophen-2-yl)pyrimidin-2-amine]: the IC50 in assay [1] (setting [3]) and in assay [2] (setting [4]) was above 5 µM throughout.
With `Cc1ccc(C(=O)CCC(=O)NCc2ccc3sc(-c4ccnc(N)n4)c(C)c3c2)cc1` [Example 250, Cc1ccc(cc1)C(═O)CCC(═O)NCc2ccc3sc(c(C)c3c2)-c4ccnc(N)n4], the IC50 in assay [1] (setting [3]) is below 5 µM; in assay [2] (setting [4]), above 5 µM.
Regarding `Cc1c(-c2ccnc(N)n2)sc2ccc(Sc3cccc(C(=O)O)c3)cc12` [Example 86, 3-(2-(2-Aminopyrimidin-4-yl)-3-methylbenzo[b]thiophen-5-ylthio)benzoic acid], the IC50 in assay [1] (setting [3]) and in assay [2] (setting [4]) was below 5 µM each time.
`Cc1c(-c2ccc3[nH]ncc3c2)sc2ccc(Cl)cc12` [Example 10, 5-(5-Chloro-3-methylbenzo[b]thiophen-2-yl)-1H-indazole]: the IC50 in assay [1] (setting [3]) and in assay [2] (setting [4]) was below 5 µM in each case.
In the case of `Cc1c(-c2ccnc(N)n2)sc2ccc(CNC(=O)c3ccccc3C(=O)c3ccc(F)cc3)cc12` [Example 317, Cc1c(sc2ccc(CNC(═O)c3ccccc3C(═O)c4ccc(F)cc4)cc12)-c5ccnc(N)n5], the IC50 in assay [1] (setting [3]) was above 5 µM; in assay [2] (setting [4]), below 5 µM.
The matching figures for `COc1ccc(OC)c(C(=O)NCc2ccc3sc(-c4ccnc(N)n4)c(C)c3c2)c1` [Example 36, N-((2-(2-Aminopyrimidin-4-yl)-3-methylbenzo[b]thiophen-5-yl)methyl)-2,5-dimethoxybenzamide]: below 5 µM and below 5 µM.
